Assay results reported in patent USRE33024E, “Bronchodilating 8-hydroxy-5-(1R)-1-hydroxy-2-(N-((1R)-2-(p-methoxyphenyl)-1-methylethyl) -amino)ethyl) carbostyril and intermediates thereof” (Tanabe Seiyaku Co. Ltd., priority 1983, dated 1989).
Counter-ions that a name gives are not always drawn.

Assays:
[1] = system: antigen-induced bronchoconstriction; assay: Inhibitory effect on antigen-induced bronchoconstriction (Konzett-Rossler method); assay type: in vivo, guinea pig (Male Hartley); details: Cavia porcellus, iv; i.v. one minute before ovalbumin challenge (30 μg/kg, i.v.); passively sensitized guinea pigs
Procedure: Inhibitory effect on antigen-induced bronchoconstriction
Male Hartley guinea pigs (body weight: 280-520 g) were passively sensitized by intravenous injection of rabbit antiserum against ovalbumin (0.2 ml/100 g of body weight, PCA titer: ×1000), 24 hours later, the animals were anesthetized with α-chloralose (120 mg/kg, i.v.) and immobilized with gallamine triethiodide (5 mg/kg, i.v.) under artificial respiration. Lung volume changes were measured as overflow of air from the lung by the Konzett-Rossler method (cf. Arch. Exp. Pathol. Pharmakol., 195, 71 (1940)). The test compound was administered intravenously to the animals one minute before said animals were challenged with ovalbumin (30 μg/kg, i.v.). The ED50 (i.e., the dose of the test compound which is necessary to produce 50% reduction of antigen-induced bronchoconstruction) was estimated from the dose-response curve.

[2] = in vivo; details: mouse, iv
Procedure: (§1) A test compound was dissolved in 5% glucose solution, and the test compound solution (0.2 ml/10 g of body weight) was administered intravenously to Male ddY strain mice (body weight: 25-28 g). The LD50 of the test compound was estimated by the Up and Down method.

[3] = system: isolated tracheal muscle preparations of Male Hartley guinea pigs; assay: Bronchodilating activity: relaxation of histamine-induced contraction of isolated tracheal muscle preparations (Magnus' method); parameters: species or system guinea pig (Male Hartley)
Procedure: Isolated tracheal muscle preparations of Male Hartley guinea pigs (body weight: 430-645 g) were used to estimate the bronchodilating activity of a test compound according to Magnus' method. The preparation was suspended in an organ bath filled with 20 ml of Tyrode's solution (37° C.), and said solution was continuously bubbled with air. Histamine 2HCl was added to the bath (final concentration; 1×10^-5 g/ml) and the test compound was added thereto about 15 minutes after the addition of histamine 2HCl. Tension changes in the tracheal smooth muscle were recorded isometrically with a force-displacement transducer. Molar conentration of the test compound which produced 50% relaxation of the histamine-induced tracheal contraction were estimated from the concentration-response curve, and the potency ratio of the test compound to Isoproterenol was calculated therefrom.

[4] = system: Male ddY strain mice; assay: Acute toxicity (Up and Down method); details: mouse, in vivo
Procedure: as §1

COc1ccc(C[C@@H](C)NC[C@H](O)c2ccc(O)c3[nH]c(=O)ccc23)cc1 (relative stereo) [Comp. No. 2, 8-hydroxy-5-{1-hydroxy-2-[N-(2-(p-methoxyphenyl)-1-methylethyl)amino]ethyl}carbotyril (α-isomer) hydrochloride]
ED50 [1]: 0.00018 mg/kg
LD50 [2]: 91.3 mg/kg

COc1ccc(C[C@@H](C)NC[C@H](O)c2ccc(O)c3[nH]c(=O)ccc23)cc1.Cl [Comp. No. 1, 8-hydroxy-5-{(1R)-1-hydroxy-2-[N-((1R)-2-(p-methoxyphenyl)-1-methylethyl)amino]ethyl}carbostyril hydrochloride]
LD50 [2]: 84.6 mg/kg
bronchodilating activity, times as strong as Isoproterenol ([3]; isolated tracheal chains of guinea pigs, versus Isoproterenol): ~100 times
bronchodilating activity, times as strong as procaterol ([3]; isolated tracheal chains of guinea pigs, versus procaterol): about 10 times

COc1ccc(CC(C)NCC(O)c2ccc(O)c3[nH]c(=O)ccc23)cc1 (stereo not shown) [compound (I)]
toxicity (in words) [4]: considerably low

CCC(NC(C)C)C(O)c1ccc(O)c2[nH]c(=O)ccc12 (stereo not shown) [Procaterol, 8-hydroxy-5-[1-hydroxy-2-(isopropylamino)butyl]carbostyril hydrochloride hemihydrate, reference compound]
ED50 [1]: 0.00064 mg/kg
LD50 [2]: 70.3 mg/kg
selectivity ratio [2]: 110000
Potency ratio (to Isoproterenol) ([3]; from molar concentration giving 50% relaxation of histamine-induced tracheal contraction, histamine 2HCl 1×10^-5 g/ml, Tyrode's solution 37° C.): 17
